Experiments:
Assay type in all cases: cell-based
[1] = system: SC-β cells (Nkx6.1/Isl1 double positive cells); assay: Percent SC-β cells (Nkx6.1/Isl1 double positive) by FACS; conditions: for SC-β cell percent in stage 6: added to the culture medium during days 1-10 of stage 6, JJKK 048 1 μM, KML 29 10 μM, NF 1819 10 μM
Experimental: (§1) In this instance cryopreserved stage 5 individual cells were thawed and cultured in a modified stage 5 (S5) medium during the first 4 days of Stage 6 (S6d1-d4) […], with subsequent culture of the cells in Stage 6 (S6) medium (see experimental outline in FIG. 2).
(§2) The effect of supplementing the modified S5 medium used in stage 6 with one or more saturated fatty acid of unsaturated fatty acid was analyzed. The fatty acids analyzed included palmitate (saturated fatty acid), oleic acid (unsaturated fatty acid), linoleic acid (unsaturated fatty acid), and palmitoleic acid (unsaturated fatty acid) (see protocol is outlined in FIG. 20). The fatty acid free HSA+fatty acid were stirred for 1 hour at 37° C.
MGLL (monoacylglycerol lipase) is a serine hydrolase that catalyzes the conversion of monoacylglycerides to free fatty acids and glycerol. The effect of three highly specific MGLL inhibitors (JJKK 048 (1 μM), KML 29 (10 μM), NF 1819 (10 μM)) on SC-β cell production was analyzed.
Stage 5 insulin-positive endocrine cell clusters were differentiated from stem cells as described herein. The insulin-positive endocrine cell clusters were dissociated such that the majority of the dissociated cells were now individual cells, and the cells were then cryopreserved, and thawed. The thawed individual cells were then differentiated into β cell clusters through a stage 6 differentiation. […] The base medium of MDCB 131 with 0.05% HSA was used for days 5-11 of stage 6 (FIG. 30, FIG. 31).

SC-β cells = assay: Number / recovery / yield of SC-β cells in stage 6; conditions: day 10 of stage 6; with 0.5% HSA
Experimental: as §1, §2

SC-β cells / SC-islets = assay: Glucose stimulated insulin secretion (GSIS), human C-peptide per 1000 cells; conditions: day 10 of stage 6 (S6d10); addition post day 4 of stage 6
Experimental: FIG. 18A is a bar graph showing the glucose stimulated insulin secretion (GSIS) of cells at day 12 of stage 6 (S6d12). GSIS was measured as the level of human C-peptide (pM) per 1000 cells after glucose stimulation. The cells were cultured in stage 6 (S6) medium+1% HSA for days 1-12 of stage 6.
A range of 2.8 mM and 20 mM glucose was used to stimulate GSIS (See experimental protocol FIG. 13).

SC-islet cell clusters = assay: Cell cluster size, morphology, homogeneity, re-aggregation and stability (microscopy); conditions: day 6 of stage 6 (S6d6), fatty acid supplementation
Experimental: as §2
A select number of metabolites were included in the DS6 medium, including: glutamate, acetate, β hydroxybutarate, L-caratine, taurine, formate, and biotin.

[2] = system: thawed cryopreserved stage 5 cells; assay: Cell recovery / viable cell number in stage 6 culture after thaw of cryopreserved stage 5 cells; conditions: inclusion in DS3 media
Experimental: The insulin-positive endocrine progenitor cell clusters were dissociated such that the majority of the dissociated cells were individual cells, and the cells were cryopreserved, and thawed. The thawed cells are then differentiated into β cell clusters through a stage 6 differentiation. The stage 6 culture medium comprises DMEM F12 base with 1% human serum albumin (HSA), and optionally 1.5 μM zinc (“DS2 medium”). […] Thus, whether alteration of the S6 medium could improve recovery was analyzed.
In this instance cryopreserved stage 5 individual cells were thawed and cultured in a modified stage 5 (S5) medium during the first 4 days of Stage 6 (S6d1-d4) (approximately 72 hours), with subsequent culture of the cells in Stage 6 (S6) medium (see experimental outline in FIG. 2).
Several factor drop out experiments were conducted to identify the contribution of each factor.

## O=C(OC(C(F)(F)F)C(F)(F)F)N1CCC(C(O)(c2ccc3c(c2)OCO3)c2ccc3c(c2)OCO3)CC1 [KML 29]
[1]
  SC-β cell percent in stage 6: around 50%

## CCCCCCCCCCCCCCCC(=O)O [palmitate, palmitic acid]
[1]; fatty acid added to the modified S5 medium, days 1-4 of stage 6
  percent of SC-β cells (Nkx6.1/Isl1 double positive cells) recovered: improved
SC-β cells
  total number of SC-β cells recovered: enhanced the total number of SC-β cells recovered
SC-β cells / SC-islets
  GSIS: improves GSIS
SC-islet cell clusters
  size of the cell clusters: enhances the size of the cell clusters

## CCCCC/C=C\C/C=C\CCCCCCCC(=O)O [linoleic acid]
SC-islet cell clusters
  size of the cell clusters: enhances the size of the cell clusters

## O=S(=O)([O-])[O-].[Zn+2] [ZnSO4]
[2]
  S6d4 viable cell number: greatly improves S6d4 viable cell number

## O=C1[C@H](c2ccc(F)cc2)[C@@H](c2ccc3c(c2)OCO3)N1C1CCN(C(=O)n2cncn2)CC1 [NF 1819]
[1]
  SC-β cell percent in stage 6: around 50%

## O=C(N1CCC(C(c2ccc3c(c2)OCO3)c2ccc3c(c2)OCO3)CC1)n1cncn1 [JJKK 048]
[1]
  SC-β cell percent in stage 6: around 50%

Reference: US20260000735A1, “ENHANCED DIFFERENTIATION OF BETA CELLS” (Vertex Pharmaceuticals Incorporated, priority 2019, published 2026)
